Assay results: PubChem BioAssay (NCI)
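Protocol summary: plate cells (96-well), add compound at 5 concentrations, incubate 48 h, interpolate endpoints linearly. GI50: concentration for 50% inhibition of growth. Definition used: TGI = concentration required for complete inhibition of growth.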

Tests used:
Experiment in all cases: NCI anticancer screen, dose series, 48 h
NCI-H23 lung = tested on: NCI-H23 lung
HCT-15 colon = tested on: HCT-15 colon
MDA-MB-435 = tested on: MDA-MB-435
T-47D breast = tested on: T-47D breast
LOX IMVI melanoma = tested on: LOX IMVI melanoma
SK-MEL-5 melanoma = tested on: SK-MEL-5 melanoma
EKVX NSCLC = tested on: EKVX NSCLC
HCT-116 colon = tested on: HCT-116 colon
SK-MEL-2 melanoma = tested on: SK-MEL-2 melanoma
SW-620 colon = tested on: SW-620 colon
RPMI-8226 leukemia = tested on: RPMI-8226 leukemia
NCI/ADR-RES ovarian = tested on: NCI/ADR-RES ovarian
786-0 renal = tested on: 786-0 renal
OVCAR-8 ovarian = tested on: OVCAR-8 ovarian
SK-MEL-28 melanoma = tested on: SK-MEL-28 melanoma
MOLT-4 leukemia = tested on: MOLT-4 leukemia
RXF 393 renal = tested on: RXF 393 renal
SR leukemia = tested on: SR leukemia
MALME-3M melanoma = tested on: MALME-3M melanoma
CAKI-1 renal = tested on: CAKI-1 renal
U251 CNS = tested on: U251 CNS
HT29 colon = tested on: HT29 colon
IGROV1 ovarian = tested on: IGROV1 ovarian
SF-268 CNS = tested on: SF-268 CNS
HS 578T breast = tested on: HS 578T breast
M14 melanoma = tested on: M14 melanoma
HL-60(TB) leukemia = tested on: HL-60(TB) leukemia
TK-10 renal = tested on: TK-10 renal
OVCAR-4 ovarian = tested on: OVCAR-4 ovarian
PC-3 prostate = tested on: PC-3 prostate
CCRF-CEM leukemia = tested on: CCRF-CEM leukemia
MCF7 breast = tested on: MCF7 breast
SK-OV-3 ovarian = tested on: SK-OV-3 ovarian
NCI-H226 lung = tested on: NCI-H226 lung
NCI-H522 lung = tested on: NCI-H522 lung
OVCAR-3 ovarian = tested on: OVCAR-3 ovarian
MDA-MB-231 breast = tested on: MDA-MB-231 breast
DU-145 prostate = tested on: DU-145 prostate
BT-549 breast = tested on: BT-549 breast
UO-31 renal = tested on: UO-31 renal
NCI-H460 lung = tested on: NCI-H460 lung
SF-295 CNS = tested on: SF-295 CNS
A549 NSCLC = tested on: A549 NSCLC
HCC-2998 colon = tested on: HCC-2998 colon
COLO 205 colon = tested on: COLO 205 colon
UACC-257 melanoma = tested on: UACC-257 melanoma
ACHN renal = tested on: ACHN renal
KM12 colon = tested on: KM12 colon
SNB-75 CNS = tested on: SNB-75 CNS
HOP-62 NSCLC = tested on: HOP-62 NSCLC
SN12C renal = tested on: SN12C renal
SF-539 CNS = tested on: SF-539 CNS
A498 renal = tested on: A498 renal
UACC-62 melanoma = tested on: UACC-62 melanoma
OVCAR-5 ovarian = tested on: OVCAR-5 ovarian
K-562 leukemia = tested on: K-562 leukemia
HOP-92 NSCLC = tested on: HOP-92 NSCLC
SNB-19 CNS = tested on: SNB-19 CNS

## COc1ccc(-c2nn(-c3cccc(Cl)c3)cc2-c2cc(-c3cccs3)[nH]c(=S)n2)cc1
NCI-H23 lung
  GI50: 3.43 µM
  TGI: 16.2 µM
HCT-15 colon
  GI50: 3.69 µM
  TGI: > 100 µM
MDA-MB-435
  GI50: 3.13 µM
  TGI: 19 µM
T-47D breast
  GI50: 4.16 µM
  TGI: 34.6 µM
LOX IMVI melanoma
  GI50: 3.56 µM
  TGI: 13.8 µM
SK-MEL-5 melanoma
  GI50: 2.93 µM
  TGI: 10.9 µM
EKVX NSCLC
  GI50: 1.93 µM
  TGI: 21.7 µM
HCT-116 colon
  GI50: 2.38 µM
  TGI: 11.2 µM
SK-MEL-2 melanoma
  GI50: 2.87 µM
  TGI: 6.9 µM
SW-620 colon
  GI50: 3.79 µM
  TGI: 22.3 µM
RPMI-8226 leukemia
  GI50: 2.42 µM
  TGI: 10.9 µM
NCI/ADR-RES ovarian
  GI50: 4.77 µM
  TGI: 41.8 µM
786-0 renal
  GI50: 4.18 µM
  TGI: > 100 µM
OVCAR-8 ovarian
  GI50: 3.15 µM
  TGI: > 100 µM
SK-MEL-28 melanoma
  GI50: 3.93 µM
  TGI: 15.7 µM
MOLT-4 leukemia
  GI50: 3.03 µM
  TGI: 25.2 µM
RXF 393 renal
  GI50: 3.76 µM
  TGI: 19.5 µM
SR leukemia
  GI50: 4 µM
  TGI: 31.9 µM
MALME-3M melanoma
  GI50: 3.49 µM
  TGI: 15.8 µM
CAKI-1 renal
  GI50: 3.03 µM
  TGI: 8.68 µM
U251 CNS
  GI50: 2.6 µM
  TGI: 12.4 µM
HT29 colon
  GI50: 3.82 µM
  TGI: 13 µM
IGROV1 ovarian
  GI50: 3.61 µM
  TGI: 15.3 µM
SF-268 CNS
  GI50: 4.52 µM
  TGI: 73.6 µM
HS 578T breast
  GI50: 4.26 µM
  TGI: > 100 µM
M14 melanoma
  GI50: 2.81 µM
  TGI: 14 µM
HL-60(TB) leukemia
  GI50: 3.49 µM
  TGI: 13.2 µM
TK-10 renal
  GI50: 4.55 µM
  TGI: 32.8 µM
OVCAR-4 ovarian
  GI50: 3.47 µM
  TGI: > 100 µM
PC-3 prostate
  GI50: 3.09 µM
  TGI: > 100 µM
CCRF-CEM leukemia
  GI50: 2.8 µM
  TGI: > 100 µM
MCF7 breast
  GI50: 3.02 µM
  TGI: 33.4 µM
SK-OV-3 ovarian
  GI50: 5.91 µM
  TGI: 36.8 µM
NCI-H226 lung
  GI50: 3.16 µM
  TGI: 54.4 µM
NCI-H522 lung
  GI50: 2.54 µM
  TGI: 8.86 µM
OVCAR-3 ovarian
  GI50: 3.04 µM
  TGI: 9.42 µM
MDA-MB-231 breast
  GI50: 3.52 µM
  TGI: 26 µM
DU-145 prostate
  GI50: 5.49 µM
  TGI: 72.5 µM
BT-549 breast
  GI50: 3.18 µM
  TGI: 15.9 µM
UO-31 renal
  GI50: 2.82 µM
  TGI: 26.5 µM
NCI-H460 lung
  GI50: 3.01 µM
  TGI: 11 µM
SF-295 CNS
  GI50: 2.07 µM
  TGI: 7.09 µM
A549 NSCLC
  GI50: 2.29 µM
  TGI: 16.5 µM
HCC-2998 colon
  GI50: 4.03 µM
  TGI: 16.4 µM
COLO 205 colon
  GI50: 2.35 µM
  TGI: 5.59 µM
UACC-257 melanoma
  GI50: 3.06 µM
  TGI: 18 µM
ACHN renal
  GI50: 4.05 µM
  TGI: > 100 µM
KM12 colon
  GI50: 3.67 µM
  TGI: 14.4 µM
SNB-75 CNS
  GI50: 3.49 µM
  TGI: 25.6 µM
HOP-62 NSCLC
  GI50: 7.14 µM
  TGI: 22.1 µM
SN12C renal
  GI50: 3.92 µM
  TGI: > 100 µM
SF-539 CNS
  GI50: 4.7 µM
  TGI: 19.7 µM
A498 renal
  GI50: 3.01 µM
  TGI: 17 µM
UACC-62 melanoma
  GI50: 2.78 µM
  TGI: 19.2 µM
OVCAR-5 ovarian
  GI50: 6.38 µM
  TGI: > 100 µM
K-562 leukemia
  GI50: 2.91 µM
  TGI: > 100 µM
HOP-92 NSCLC
  GI50: 2.2 µM
  TGI: 10.8 µM
SNB-19 CNS
  GI50: 4.93 µM
  TGI: > 100 µM

## CCOC(=O)Nc1ccc2c(c1)/C(=N\NC(N)=S)c1ccccc1-2
NCI-H23 lung
  GI50: 2.95 µM
  TGI: 12.6 µM
HCT-15 colon
  GI50: 3.25 µM
  TGI: 18.4 µM
MDA-MB-435
  GI50: 3.58 µM
  TGI: 18.3 µM
T-47D breast
  GI50: 2.48 µM
  TGI: 9.84 µM
LOX IMVI melanoma
  GI50: 3.52 µM
  TGI: 20.2 µM
SK-MEL-5 melanoma
  GI50: 2.44 µM
  TGI: 7.59 µM
EKVX NSCLC
  GI50: 4.29 µM
  TGI: 41.2 µM
HCT-116 colon
  GI50: 4.32 µM
  TGI: 50 µM
SK-MEL-2 melanoma
  GI50: 4.95 µM
  TGI: 15.8 µM
SW-620 colon
  GI50: 5.91 µM
  TGI: 32.6 µM
RPMI-8226 leukemia
  GI50: 2.49 µM
  TGI: 12.9 µM
NCI/ADR-RES ovarian
  GI50: 2.75 µM
  TGI: 9.4 µM
786-0 renal
  GI50: 3.06 µM
  TGI: 9.08 µM
OVCAR-8 ovarian
  GI50: 3.77 µM
  TGI: 13.8 µM
SK-MEL-28 melanoma
  GI50: 4.58 µM
  TGI: 17.7 µM
MOLT-4 leukemia
  GI50: 2.83 µM
  TGI: 13.2 µM
RXF 393 renal
  GI50: 1.93 µM
  TGI: 4.6 µM
SR leukemia
  GI50: 3.13 µM
  TGI: 24.3 µM
MALME-3M melanoma
  GI50: 9.23 µM
  TGI: 33.4 µM
CAKI-1 renal
  GI50: 3.22 µM
  TGI: 15.2 µM
U251 CNS
  GI50: 4.54 µM
  TGI: 40.9 µM
HT29 colon
  GI50: 3.23 µM
  TGI: 13 µM
IGROV1 ovarian
  GI50: 5.88 µM
  TGI: 28.1 µM
SF-268 CNS
  GI50: 6.14 µM
  TGI: 39.9 µM
HS 578T breast
  GI50: 5.43 µM
  TGI: 36.7 µM
M14 melanoma
  GI50: 4.69 µM
  TGI: 23.1 µM
HL-60(TB) leukemia
  GI50: 4.24 µM
  TGI: 16.1 µM
TK-10 renal
  GI50: 15.2 µM
  TGI: > 68.5 µM
OVCAR-4 ovarian
  GI50: 4.39 µM
  TGI: 39.1 µM
PC-3 prostate
  GI50: 4.44 µM
  TGI: 24.8 µM
CCRF-CEM leukemia
  GI50: 3.49 µM
  TGI: 31.5 µM
MCF7 breast
  GI50: 3.15 µM
  TGI: 23.8 µM
SK-OV-3 ovarian
  GI50: 11.7 µM
  TGI: 44.8 µM
NCI-H226 lung
  GI50: 4.43 µM
  TGI: 17.6 µM
NCI-H522 lung
  GI50: 3.84 µM
  TGI: 12.7 µM
OVCAR-3 ovarian
  GI50: 4.38 µM
  TGI: 27.8 µM
MDA-MB-231 breast
  GI50: 3.48 µM
  TGI: > 54.6 µM
DU-145 prostate
  GI50: 5.15 µM
  TGI: 20 µM
BT-549 breast
  GI50: 4.24 µM
  TGI: 14.3 µM
UO-31 renal
  GI50: 3.97 µM
  TGI: 14.2 µM
NCI-H460 lung
  GI50: 4.33 µM
  TGI: 23.1 µM
SF-295 CNS
  GI50: 2.37 µM
  TGI: 7.59 µM
A549 NSCLC
  GI50: 3.79 µM
  TGI: 19.7 µM
HCC-2998 colon
  GI50: 4.77 µM
  TGI: 22.5 µM
COLO 205 colon
  GI50: 3.74 µM
  TGI: 15 µM
UACC-257 melanoma
  GI50: 3.55 µM
  TGI: 12.7 µM
ACHN renal
  GI50: 3.87 µM
  TGI: 15.7 µM
KM12 colon
  GI50: 3.29 µM
  TGI: 13.6 µM
SNB-75 CNS
  GI50: 4.19 µM
  TGI: 18.2 µM
HOP-62 NSCLC
  GI50: 4.9 µM
  TGI: 22.6 µM
SN12C renal
  GI50: 5.94 µM
  TGI: 65.7 µM
SF-539 CNS
  GI50: 3.75 µM
  TGI: 17.3 µM
A498 renal
  GI50: 2.39 µM
  TGI: 8.18 µM
UACC-62 melanoma
  GI50: 2.03 µM
  TGI: 4.77 µM
OVCAR-5 ovarian
  GI50: 16.8 µM
  TGI: 59.4 µM
K-562 leukemia
  GI50: 3.94 µM
  TGI: > 44.8 µM
HOP-92 NSCLC
  GI50: 8.49 µM
  TGI: 62.5 µM
SNB-19 CNS
  GI50: 9.92 µM
  TGI: > 100 µM
